Assay results published in the NIST ThermoML archive (doi:10.1016/j.jct.2015.09.002).

Test: xn = mol fraction of the nth substance listed
Conditions: 93.2 kPa, Liquid, Vibrating tube method

CCCCNCCCC [dibutylamine] + CC#N
mass density [kg/m3]
Conditions	293.15 K	298.15 K	303.15 K	308.15 K
x2 = 0	759.7	755.61	751.5	747.38
x2 = 0.0695	760.49	756.33	752.17	748
x2 = 0.081	760.6	756.44	752.27	748.08
x2 = 0.1023	760.85	756.68	752.5	748.3
x2 = 0.1527	761.32	757.12	752.9	748.66
x2 = 0.2029	761.82	757.58	753.32	749.05
x2 = 0.2499	762.19	757.95	753.65	749.34
x2 = 0.2996	762.67	758.39	754.06	749.71
x2 = 0.3542	763.23	758.88	754.51	750.12
x2 = 0.3978	763.73	759.35	754.95	750.52
x2 = 0.47	764.62	760.17	755.7	751.19
x2 = 0.4987	764.98	760.52	756.02	751.49
x2 = 0.5498	765.74	761.23	756.67	752.09
x2 = 0.6001	766.63	762.05	757.43	752.78
x2 = 0.6499	767.62	762.97	758.29	753.59
x2 = 0.6991	768.71	763.99	759.24	754.46
x2 = 0.7496	770.07	765.28	760.44	755.59
x2 = 0.8	771.64	766.75	761.82	756.87
x2 = 0.8494	773.46	768.5	763.47	758.42
x2 = 0.8994	775.72	770.63	765.48	760.32
x2 = 0.9293	777.27	772.08	766.87	761.62
x2 = 0.9394	777.86	772.65	767.41	762.14
x2 = 0.9498	778.5	773.27	768	762.7
x2 = 0.9596	779.13	773.86	768.55	763.23
x2 = 0.9699	779.82	774.53	769.19	763.83
x2 = 0.9799	780.54	775.22	769.85	764.46
x2 = 0.9897	781.26	775.91	770.51	765.09

CCCN [propan-1-amine] + CC#N
mass density [kg/m3]
Conditions	293.15 K	298.15 K	303.15 K	308.15 K
x2 = 0	716.48	711.21	705.88	700.62
x2 = 0.0105	717.02	711.79	706.42	701.16
x2 = 0.0199	717.49	712.26	706.89	701.63
x2 = 0.0296	717.97	712.74	707.37	702.11
x2 = 0.0409	718.55	713.3	708.3	702.66
x2 = 0.0512	719.01	713.79	708.42	703.16
x2 = 0.061	719.48	714.26	708.9	703.65
x2 = 0.0707	719.96	714.7	709.38	704.14
x2 = 0.0809	720.48	715.23	710.24	704.64
x2 = 0.0895	720.87	715.66	710.31	705.06
x2 = 0.0993	721.35	716.14	710.79	705.55
x2 = 0.1493	723.85	718.65	713.34	708.1
x2 = 0.2006	726.46	721.27	715.97	710.75
x2 = 0.2499	729.08	723.91	718.64	713.3
x2 = 0.2998	731.77	726.59	721.31	715.96
x2 = 0.3507	734.55	729.34	724.05	718.82
x2 = 0.3993	737.38	732.18	726.9	721.58
x2 = 0.4479	740.27	735.05	729.77	724.44
x2 = 0.4988	743.34	738.1	732.79	727.56
x2 = 0.5486	746.55	741.33	736.02	730.68
x2 = 0.6017	750.02	744.77	739.46	734.16
x2 = 0.6499	753.32	748.08	742.76	737.45
x2 = 0.6998	756.86	751.61	746.49	740.98
x2 = 0.7501	760.68	755.4	750.19	744.7
x2 = 0.8001	764.57	759.28	754.03	748.54
x2 = 0.8487	768.54	763.25	757.85	752.47
x2 = 0.8995	772.9	767.55	762.15	756.72
x2 = 0.9089	773.68	768.32	762.93	757.54
x2 = 0.9201	774.65	769.28	763.89	758.5
x2 = 0.928	775.36	770	764.6	759.19
x2 = 0.9393	776.43	771.07	765.67	760.24
x2 = 0.9491	777.27	771.89	766.51	761.05
x2 = 0.9594	778.22	772.82	767.45	761.98
x2 = 0.9678	778.99	773.6	768.21	762.74
x2 = 0.9795	780.09	774.69	769.3	763.82
x2 = 0.9893	781.01	775.61	770.21	764.73
